Like-named read-outs stand apart in the source and are kept apart here.
Test system: Lox-IMVI melanoma cell line
Experiment: Lox-IMVI anti-proliferative assay (growth inhibition, Cell Titer-Glo)
Type: cell-based, human
Method in brief: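 Luminescence from cellular ATP measured viability at compound addition and again after 72 h of exposure (37 °C, 5% CO2, RPMI + 10% FBS). Doses spanned 0.5 nM to 10 μM in ten 3-fold steps with 0.2% DMSO. Values were fitted as % of DMSO-treated cells by sigmoidal dose-response.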

[1] = Homo sapiens, IC50 activity level in the cell-based Lox-IMVI anti-proliferative assay, read-out: Activity
[2] = Homo sapiens, Lox-IMVI anti-proliferative assay, IC50 activity level, read-out: Activity
[3] = Homo sapiens, Lox-IMVI melanoma cell line, anti-proliferative assay, read-out: Activity (IC50 activity level)

IC50 [1] [µM]	IC50 [2] [µM]	Structure (SMILES)	other results
	> 1	C[C@]1(C(N)=O)CC[C@@H](n2c(Nc3c(F)cc(F)cc3F)nc3cnc(N[C@@H]4CCC[C@H](O)C4)nc32)CC1 [Example 563, (1S,4s)-4-(2-((1R,3S)-3-hydroxycyclohexylamino)-8-(2,4,6-trifluorophenylamino)-9H-purin-9-yl)-1-methylcyclohexanecarboxamide]	
	< 0.25	C[C@]1(C(N)=O)CC[C@@H](n2c(Nc3c(Cl)cc(C#N)cc3Cl)nc3cnc(NC4CCCC4)nc32)CC1 [Example 561, (1s,4s)-4-(2-(cyclopentylamino)-8-(2,6-dichloro-4-cyanophenylamino)-9H-purin-9-yl)-1-methylcyclohexanecarboxamide]	

Continued, compound first:

Structure (SMILES)	IC50 [1] [µM]	IC50 [2] [µM]	other results
NC(=O)[C@H]1CC[C@@H](n2c(Nc3ccc(Cl)c(F)c3F)nc3cnc(N[C@@H]4CC[C@@H](O)C4)nc32)CC1 [Example 216, (1S,4s)-4-(8-(4-chloro-2,3-difluorophenylamino)-2-((1R,3R)-3-hydroxycyclopentylamino)-9H-purin-9-yl)cyclohexanecarboxamide]	> 1		
NC(=O)[C@H]1CC[C@@H](n2c(Nc3c(F)cc(Cl)cc3Cl)nc3cnc(N[C@@H]4CCOC4)nc32)CC1 [Example 223, (1S,4s)-4-(8-(2,4-dichloro-6-fluorophenylamino)-2-((R)-tetrahydrofuran-3-ylamino)-9H-purin-9-yl)cyclohexanecarboxamide]	0.25 to 0.5		
C[C@@H]1CC[C@@H](Nc2ncc3nc(Nc4c(F)cccc4F)n([C@H]4CC[C@@H](C(N)=O)CC4)c3n2)C[C@H]1O [Example 343, (1S,4s)-4-(8-(2,6-difluorophenylamino)-2-((1R,3R,4R)-3-hydroxy-4-methylcyclohexylamino)-9H-purin-9-yl)cyclohexanecarboxamide]	> 1		
C[C@@H]1COCC[C@@H]1Nc1ncc2nc(Nc3c(F)cc(F)cc3F)n([C@H]3CC[C@@H](C(N)=O)CC3)c2n1 [Example 511, (1R,4s)-4-(2-((3S,4S)-3-methyltetrahydro-2H-pyran-4-ylamino)-8-(2,4,6-trifluorophenylamino)-9H-purin-9-yl)cyclohexanecarboxamide]		0.5 to 1	
C[C@@H]1CC[C@@H](Nc2ncc3nc(Nc4c(F)cc(Cl)cc4F)n([C@H]4CC[C@@H](C(N)=O)CC4)c3n2)C[C@H]1O [Example 356, (1S,4s)-4-(8-(4-chloro-2,6-difluorophenylamino)-2-((1R,3R,4R)-3-hydroxy-4-methylcyclohexylamino)-9H-purin-9-yl)cyclohexanecarboxamide]	> 1		
CC[C@@H](CO)Nc1ncc2nc(Nc3ccc(Cl)cc3Cl)n([C@H]3CC[C@@H](C(N)=O)CC3)c2n1 [Example 149, (1R,4s)-4-(8-(2,4-dichlorophenylamino)-2-((S)-1-hydroxybutan-2-ylamino)-9H-purin-9-yl)cyclohexanecarboxamide]	> 1		
NC(=O)[C@H]1CC[C@@H](n2c(Nc3c(F)cccc3F)nc3cnc(N[C@H]4CCOC[C@H]4F)nc32)CC1 [Example 305, (1R,4s)-4-(8-(2,6-difluorophenylamino)-2-((3S,4S)-3-fluorotetrahydro-2H-pyran-4-ylamino)-9H-purin-9-yl)cyclohexanecarboxamide]	0.5 to 1		
C[C@@H]1COCC[C@H]1Nc1ncc2nc(Nc3c(Cl)cc(Cl)cc3Cl)n([C@H]3CC[C@@H](C(N)=O)CC3)c2n1 [Example 499, (1S,4s)-4-(2-((3S,4R)-3-methyltetrahydro-2H-pyran-4-ylamino)-8-(2,4,6-trichlorophenylamino)-9H-purin-9-yl)cyclohexanecarboxamide]		< 0.25	
NC(=O)[C@H]1CC[C@@H](n2c(Nc3c(F)cc(F)cc3F)nc3cnc(N[C@@H]4CCC(F)(F)C4)nc32)CC1 [Example 545, (1S,4s)-4-(2-((R)-3,3-difluorocyclopentylamino)-8-(2,4,6-trifluorophenylamino)-9H-purin-9-yl)cyclohexanecarboxamide]		< 0.25	
N#Cc1cc(Cl)c(Nc2nc3cnc(N[C@@H]4CCOC4)nc3n2[C@H]2CC[C@@H](C(N)=O)CC2)c(Cl)c1 [Example 518, (1S,4s)-4-(8-(2,6-dichloro-4-cyanophenylamino)-2-((R)-tetrahydrofuran-3-ylamino)-9H-purin-9-yl)cyclohexanecarboxamide]		0.25 to 0.5	
NC(=O)[C@H]1CC[C@@H](n2c(Nc3c(Cl)cc(Cl)cc3Cl)nc3cnc(N[C@@H]4CCCN(c5ccccc5)C4)nc32)CC1 [Example 743, (1S,4s)-4-(2-((R)-1-phenylpiperidin-3-ylamino)-8-(2,4,6-trichlorophenylamino)-9H-purin-9-yl)cyclohexanecarboxamide]			IC50 [3]: > 1 µM
NC(=O)[C@H]1CC[C@@H](n2c(Nc3c(F)cccc3F)nc3cnc(N[C@@H]4CCOC[C@@H]4F)nc32)CC1 [Example 304, (1S,4s)-4-(8-(2,6-difluorophenylamino)-2-((3R,4R)-3-fluorotetrahydro-2H-pyran-4-ylamino)-9H-purin-9-yl)cyclohexanecarboxamide]	> 1		
C[C@@H]1COCC[C@@H]1Nc1ncc2nc(Nc3c(Cl)cc(C#N)cc3Cl)n([C@H]3CC[C@@H](C(N)=O)CC3)c2n1 [Example 498, (1R,4s)-4-(8-(2,6-dichloro-4-cyanophenylamino)-2-((3S,4S)-3-methyltetrahydro-2H-pyran-4-ylamino)-9H-purin-9-yl)cyclohexanecarboxamide]		0.25 to 0.5	
CCN1CCC[C@@H](Nc2ncc3nc(Nc4c(F)cc(Cl)cc4Cl)n([C@H]4CC[C@@H](C(N)=O)CC4)c3n2)C1 [Example 734, (1S,4s)-4-(8-(2,4-dichloro-6-fluorophenylamino)-2-((R)-1-ethylpiperidin-3-ylamino)-9H-purin-9-yl)cyclohexanecarboxamide]			IC50 [3]: > 1 µM
CC1(C)CC[C@@H](Nc2ncc3nc(Nc4c(F)ccc(Cl)c4F)n([C@H]4CC[C@@H](C(N)=O)CC4)c3n2)C[C@H]1O [Example 390, (1S,4s)-4-(8-(3-chloro-2,6-difluorophenylamino)-2-((1R,3R)-3-hydroxy-4,4-dimethylcyclohexylamino)-9H-purin-9-yl)cyclohexanecarboxamide]	> 1		
NC(=O)[C@H]1CC[C@@H](n2c(Nc3c(Cl)cc(Cl)cc3Cl)nc3cnc(N[C@@H]4CCC[C@H]4O)nc32)CC1 [Example 254, (1S,4s)-4-(2-((1R,2R)-2-hydroxycyclopentylamino)-8-(2,4,6-trichlorophenylamino)-9H-purin-9-yl)cyclohexanecarboxamide]	0.5 to 1		
NC(=O)[C@H]1CC[C@@H](n2c(Nc3c(F)cc(F)cc3Cl)nc3cnc(N[C@H]4CCOC[C@H]4F)nc32)CC1 [Example 692, (1R,4s)-4-(8-(2-chloro-4,6-difluorophenylamino)-2-((3S,4S)-3-fluorotetrahydro-2H-pyran-4-ylamino)-9H-purin-9-yl)cyclohexanecarboxamide]			IC50 [3]: < 0.25 µM
NC(=O)[C@H]1CC[C@@H](n2c(Nc3c(F)cc(Cl)cc3Cl)nc3cnc(NC4CCCOCC4)nc32)CC1 (stereo partly shown) [Example 537, (1s,4s)-4-(8-(2,4-dichloro-6-fluorophenylamino)-2-(oxepan-4-ylamino)-9H-purin-9-yl)cyclohexanecarboxamide]		< 0.25	
NC(=O)[C@H]1CC[C@@H](n2c(Nc3c(F)ccc(F)c3F)nc3cnc(NC4CCCC4)nc32)CC1 [Example 141, (1s,4s)-4-(2-(cyclopentylamino)-8-(2,3,6-trifluorophenylamino)-9H-purin-9-yl)cyclohexanecarboxamide]	0.5 to 1		
Cc1ccc(S(=O)(=O)N2CCC[C@@H](Nc3ncc4nc(Nc5c(Cl)cc(Cl)cc5Cl)n([C@H]5CC[C@@H](C(N)=O)CC5)c4n3)C2)cc1 [Example 788, (1S,4s)-4-(2-((R)-1-tosylpiperidin-3-ylamino)-8-(2,4,6-trichlorophenylamino)-9H-purin-9-yl)cyclohexanecarboxamide]			IC50 [3]: > 1 µM
C[C@]1(C(N)=O)CC[C@@H](n2c(Nc3c(F)cc(C#N)cc3F)nc3cnc(N[C@@H]4CCC[C@@H](O)C4)nc32)CC1 [Example 642, (1S,4s)-4-(8-(4-cyano-2,6-difluorophenylamino)-2-((1R,3R)-3-hydroxycyclohexylamino)-9H-purin-9-yl)-1-methylcyclohexanecarboxamide]			IC50 (Lox-IMVI melanoma cell line, anti-proliferative assay, read-out: Activity (IC50 activity level)): > 1 µM
CC[C@@H](CO)Nc1ncc2nc(Nc3c(F)cc(F)cc3F)n([C@H]3CC[C@@H](C(N)=O)CC3)c2n1 [Example 143, (1R,4s)-4-(2-((S)-1-hydroxybutan-2-ylamino)-8-(2,4,6-trifluorophenylamino)-9H-purin-9-yl)cyclohexanecarboxamide]	> 1		
C[C@@H]1COCC[C@H]1Nc1ncc2nc(Nc3c(F)cc(F)cc3Cl)n([C@H]3CC[C@@](C)(C(N)=O)CC3)c2n1 [Example 725, (1S,4s)-4-(8-(2-chloro-4,6-difluorophenylamino)-2-((3S,4R)-3-methyltetrahydro-2H-pyran-4-ylamino)-9H-purin-9-yl)-1-methylcyclohexanecarboxamide]			IC50 [3]: < 0.25 µM
C[C@]1(C(N)=O)CC[C@@H](n2c(Nc3c(F)cc(F)cc3Cl)nc3cnc(N[C@@H]4CC[C@@H](O)C4)nc32)CC1 [Example 635, (1S,4s)-4-(8-(2-chloro-4,6-difluorophenylamino)-2-((1R,3R)-3-hydroxycyclopentylamino)-9H-purin-9-yl)-1-methylcyclohexanecarboxamide]			IC50 [3]: 0.25 to 0.5 µM
CC(C)OC(=O)N1CCC[C@@H](Nc2ncc3nc(Nc4c(F)cc(C#N)cc4F)n([C@H]4CC[C@@H](C(N)=O)CC4)c3n2)C1 [Example 771, (R)-isopropyl 3-(9-((1s,4S)-4-carbamoylcyclohexyl)-8-(4-cyano-2,6-difluorophenylamino)-9H-purin-2-ylamino)piperidine-1-carboxylate]			IC50 [3]: > 1 µM
C[C@]1(C(N)=O)CC[C@H](n2c(Nc3c(Cl)cc(Cl)cc3Cl)nc3cnc(NC4CCCC4)nc32)CC1 [Example 490, (1r,4r)-4-(2-(cyclopentylamino)-8-(2,4,6-trichlorophenylamino)-9H-purin-9-yl)-1-methylcyclohexanecarboxamide]		> 1	

— patent US11590139B2, “Substituted aminopurine compounds, compositions thereof, and methods of treatment therewith” (Signal Pharmaceuticals, LLC, priority 2014, dated 2023)
